Measurements as given in patent EP1891948A1, “Treatment of neurological and neuropsychological disorders” (Probiodrug AG, priority 2000, dated 2002).

Tested on: WistarF/Han (WF) rats
Assay: Response to novelty (open field test) after i.c.v. treatment
Type: in vivo
Procedure: Animals. Male WistarF/Han (WF) rats (Central Animal Laboratory, Hannover Medical School, Hannover, Germany, see http://www.mh-hannover.de/institut/tierlabor/wf.htm for details), weighing 350-390g, were housed in a sound-proof, temperature controlled (24.0±0.5°C) room under specific pathogen free conditions with a 12/12h dark/light cycle (lights on at 07.00 with illumination level of 80 Lux). Food (Altromin lab chow pellets) and tap water were available ad libitum. Under ketamine/xylasine (100/5 mg/kg, i.p.) anesthesia, the rats were fixed in a Kopf stereotaxic frame and implanted with cannulae (Plastic One, Inc., Roanoke, VA, USA) above the lateral ventricle. All research and animal care procedures were approved by the Lower Saxony district government (Hannover, Germany) and followed principles described in the European Community's Council Directive of 24 November 1986 (86/609/EEC).
Surgery and i.c.v. application. For surgery, rats were anesthetized and prepared with i.c.v. cannulaes (coordinates: A:-0.7mm caudal, L:1.4mm lateral to bregma; and V:3.2mm ventral to the skull surface; tooth bar +3.0 above ear bars) using standard stereotaxic procedures as described in detail elsewhere (von Hörsten et al., 1998a,b,c). […]
Response to novelty (Open field test). […] Spontaneous activity during a single continuous test session of 15min was recorded using a video path analyzer system (E61-21 Video Path Analyser system, Coulboum instruments, PA, U.S.A.). […] Furthermore, the total incidence of fecal boli was counted after each session and the incidence and duration (sec) of grooming behavior was simultaneously recorded from a video monitor by a person blind to the treatment of the animals (von Hörsten et al., 1998c).
Statistical analysis. For statistical analysis, behavioral raw data from every test minute were analyzed by two-way analyses of variance (ANOVA) for repeated measures (factors: treatment and time as a repeated measurement). Data obtained as totals from a session were analyzed by one-way (factor: treatment) ANOVA. […]

CCC(C)C(N)C(=O)N1CCSC1 (stereo not drawn) [isoleucyl thiazolidine]
dosage already effective on time spent close to the wall (Fig. 5): 50 pmol | time spent close to the wall (sum of four consecutive minutes of open field testing, Fig. 5): dose-dependent reduction | activity in the open field (distance traveled) (wide range of dosages (0.05nmol, 5nmol, 500nmol), 60 min before test, Fig. 4): no effect
